This is an account of results in PubChem BioAssay (NCI).

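In this assay, cells in 96-well plates receive the compound at five concentrations for 48 hours. Endpoints are linearly interpolated between the surrounding concentrations. The concentration for 50% growth inhibition is given as GI50. Definition used: TGI = concentration required for complete inhibition of growth.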

Some test systems named below: EKVX NSCLC; M14 melanoma; NCI-H23 lung; NCI/ADR-RES ovarian; OVCAR-4 ovarian; PC-3 prostate; SF-268 CNS; SK-MEL-28 melanoma; SK-OV-3 ovarian; SW-620 colon.
What all share (test): NCI tumour cell line growth inhibition, 48 h

Take `C=CC(C)(C)n1cc(C2=C(O)C(=O)C(c3cn(C(C)(C)C=C)c4ccccc34)=C(O)C2=O)c2ccccc21`: the TGI in the assay with EKVX NSCLC was 14 µM; in the assay with M14 melanoma, 8.5 µM; in the assay on NCI-H23 lung it was 7.83 µM; in the assay with NCI/ADR-RES ovarian, 6.72 µM; in the assay with OVCAR-4 ovarian, 6.92 µM; in the assay with PC-3 prostate, 7.13 µM. Also, the TGI in the assay with SF-268 CNS turned out to be 8.15 µM; in the assay with SK-MEL-28 melanoma, 35 µM; in the assay on SK-OV-3 ovarian, 10.4 µM; in the assay on SW-620 colon, 53.8 µM.
Regarding `COc1ccc2c(c1)C(=O)/C(=C/c1cccc(OCC(=O)Nc3nc(C)c(C)s3)c1)O2`, the GI50 in the assay on EKVX NSCLC was 0.677 µM; with M14 melanoma it was 0.187 µM; with NCI-H23 lung, 0.0547 µM; with NCI/ADR-RES ovarian, 3.76 µM; in the assay on OVCAR-4 ovarian, 2.03 µM; with PC-3 prostate, 0.0417 µM. Moreover, the GI50 in the assay with SF-268 CNS is 0.0281 µM; in the assay on SK-MEL-28 melanoma, 0.504 µM; with SK-OV-3 ovarian, 12.8 µM; in the assay on SW-620 colon, 0.499 µM. For the same molecule, the TGI in the assay with EKVX NSCLC was found to be 15.3 µM; with M14 melanoma, 0.426 µM; with NCI-H23 lung it was 0.715 µM; in the assay with NCI/ADR-RES ovarian it was 29.6 µM; with OVCAR-4 ovarian, 6.91 µM; in the assay with PC-3 prostate it was 0.226 µM. Further, the TGI in the assay on SF-268 CNS stood at 0.0743 µM; with SK-MEL-28 melanoma it was 1.72 µM; with SK-OV-3 ovarian it was 25.6 µM; with SW-620 colon, 1.86 µM.
Take `C/C(=C(/c1ccccc1)c1ccc(OCC(O)CNCCN2CCOCC2)cc1)c1ccccc1` (stereo not given): the GI50 was 7.15 µM in the assay with EKVX NSCLC; 1.88 µM in the assay on M14 melanoma; 3.87 µM in the assay with NCI-H23 lung; 4.92 µM with NCI/ADR-RES ovarian; 3.82 µM with OVCAR-4 ovarian; 2.78 µM in the assay on PC-3 prostate. Besides, the GI50 with SF-268 CNS was 4 µM; in the assay with SK-MEL-28 melanoma it was 1.75 µM; with SK-OV-3 ovarian, 11.1 µM; in the assay on SW-620 colon, 1.77 µM. Moreover, the TGI in the assay with EKVX NSCLC is 20.6 µM; in the assay with M14 melanoma, 3.85 µM; with NCI-H23 lung, 14.5 µM; with NCI/ADR-RES ovarian it was 17.2 µM; in the assay on OVCAR-4 ovarian, 14.4 µM; in the assay with PC-3 prostate, 10.2 µM. Also, the TGI in the assay with SF-268 CNS amounted to 15.4 µM; in the assay with SK-MEL-28 melanoma it was 3.25 µM; with SK-OV-3 ovarian, 24.8 µM; with SW-620 colon it was 3.36 µM.
With `CCCc1nc(Cl)nc(Cl)c1Cl`, the TGI in the assay on EKVX NSCLC was 2.63 µM; in the assay with M14 melanoma, 1.13 µM; in the assay on NCI-H23 lung, 2.04 µM; in the assay with NCI/ADR-RES ovarian it was more than 22.4 µM; with OVCAR-4 ovarian it was 0.289 µM; in the assay with PC-3 prostate, 1.6 µM. In addition, the TGI in the assay on SF-268 CNS worked out at 4.17 µM; with SK-MEL-28 melanoma, 2.05 µM; in the assay on SK-OV-3 ovarian, 6.95 µM; in the assay with SW-620 colon, 2.17 µM.
`CCN1[C@@H](C(=O)NC23CCC(C(=O)O)(CC2)CC3)[C@H](c2cccc(Cl)c2F)[C@]2(C(=O)Nc3cc(Cl)ccc32)C12CCCCC2`: the GI50 is 2.53 µM in the assay on EKVX NSCLC; 3.22 µM in the assay on M14 melanoma; 3.53 µM in the assay on NCI-H23 lung; 5.65 µM in the assay with NCI/ADR-RES ovarian; 3.37 µM with OVCAR-4 ovarian; 2.42 µM in the assay with PC-3 prostate. The GI50 with SF-268 CNS was 3.1 µM; in the assay on SK-MEL-28 melanoma, 3.71 µM; in the assay with SK-OV-3 ovarian, 3.03 µM; in the assay on SW-620 colon it was 3.92 µM. The TGI in the assay with EKVX NSCLC came to 13.7 µM; in the assay with M14 melanoma it was 13.1 µM; in the assay with NCI-H23 lung it was 17.4 µM; in the assay on NCI/ADR-RES ovarian it was 42.5 µM; in the assay on OVCAR-4 ovarian, 15.5 µM; in the assay with PC-3 prostate it was 9.21 µM. Moreover, the TGI in the assay on SF-268 CNS stood at 15.1 µM; with SK-MEL-28 melanoma it was 14 µM; with SK-OV-3 ovarian, 12 µM; in the assay with SW-620 colon it was 17.1 µM.
Consider `COc1cc(C2=NN(C(C)=O)C(c3cc(OC)c(OC)c(OC)c3)C2)ccc1O` (stereo not given), for which the GI50 in the assay with EKVX NSCLC was 1.13 µM; in the assay with M14 melanoma, 0.342 µM; in the assay on NCI-H23 lung it was 0.51 µM; with NCI/ADR-RES ovarian, 0.283 µM; in the assay with OVCAR-4 ovarian it was 0.532 µM; with PC-3 prostate it was 0.304 µM. Further, the GI50 in the assay with SF-268 CNS was 0.539 µM; in the assay with SK-MEL-28 melanoma, 0.478 µM; in the assay with SK-OV-3 ovarian, 0.307 µM; with SW-620 colon it was 0.296 µM. Further, the TGI in the assay with EKVX NSCLC, in the assay with M14 melanoma, in the assay with NCI-H23 lung, in the assay with NCI/ADR-RES ovarian, in the assay on OVCAR-4 ovarian and in the assay on PC-3 prostate was more than 100 µM each time. Further, the TGI in the assay on SF-268 CNS, in the assay on SK-MEL-28 melanoma, in the assay with SK-OV-3 ovarian and with SW-620 colon was more than 100 µM each time.
On to `O=C(CC1(O)C(=O)Nc2ccc(F)cc21)c1ccc(C(=O)NCC2CCC3(CC2)OOC2(CCCCC2)OO3)cc1` (stereo not given), for which the GI50 was 1.87 µM in the assay with EKVX NSCLC; 12.2 µM with M14 melanoma; 3.62 µM in the assay on NCI-H23 lung; 15.9 µM in the assay on NCI/ADR-RES ovarian; 7.74 µM in the assay on OVCAR-4 ovarian; 3.86 µM in the assay on PC-3 prostate. Also, the GI50 in the assay with SF-268 CNS is 10.8 µM; in the assay with SK-MEL-28 melanoma, 13.9 µM; with SK-OV-3 ovarian it was 14.1 µM; with SW-620 colon, 7.72 µM. The TGI in the assay with EKVX NSCLC amounted to 3.98 µM; in the assay with M14 melanoma it was 39.3 µM; in the assay on NCI-H23 lung, 19.9 µM; with NCI/ADR-RES ovarian, 48.3 µM; in the assay with OVCAR-4 ovarian, 32.5 µM; in the assay with PC-3 prostate, 19.3 µM. In addition, the TGI was 30.8 µM with SF-268 CNS, 32.4 µM in the assay on SK-MEL-28 melanoma, 31.9 µM with SK-OV-3 ovarian and 27.4 µM with SW-620 colon.
With `C=C1C(=O)O[C@H]2[C@H]1CC/C(Cn1cc(-c3ccc(N)cc3)nn1)=C\CC[C@@]1(C)O[C@@H]21`, the GI50 in the assay on EKVX NSCLC is 3.89 µM; in the assay with M14 melanoma, 2.97 µM; with NCI-H23 lung, 2.49 µM; with NCI/ADR-RES ovarian, 14.5 µM; in the assay on OVCAR-4 ovarian, 4.9 µM; in the assay with PC-3 prostate, 10.1 µM. The GI50 in the assay with SF-268 CNS was 3.7 µM; in the assay with SK-MEL-28 melanoma it was 2.71 µM; in the assay on SK-OV-3 ovarian, 18.3 µM; with SW-620 colon, 2.16 µM. For the same molecule, the TGI in the assay on EKVX NSCLC was 18.5 µM; with M14 melanoma it was 10.8 µM; with NCI-H23 lung it was 7.72 µM; in the assay on NCI/ADR-RES ovarian, 38.2 µM; in the assay on OVCAR-4 ovarian, 18.6 µM; in the assay on PC-3 prostate, 24.6 µM. Moreover, the TGI is 16.3 µM in the assay with SF-268 CNS, 7.54 µM with SK-MEL-28 melanoma, 34.4 µM in the assay with SK-OV-3 ovarian and 6.01 µM with SW-620 colon.
As for `COc1cccc(CNc2ncnc3c2ncn3C2OC(CO)C(O)C2O)c1O` (stereo not given), the GI50 in the assay with EKVX NSCLC was 0.559 µM; with M14 melanoma it was 0.248 µM; in the assay on NCI-H23 lung it was 0.282 µM; in the assay on NCI/ADR-RES ovarian it was 0.168 µM; in the assay on OVCAR-4 ovarian, 0.105 µM; in the assay on PC-3 prostate it was 0.179 µM. The GI50 with SF-268 CNS was 0.257 µM; in the assay with SK-MEL-28 melanoma, 1.55 µM; with SK-OV-3 ovarian, 0.179 µM; with SW-620 colon it was 0.159 µM. Moreover, the TGI in the assay on EKVX NSCLC is more than 59.6 µM; with M14 melanoma, more than 100 µM; in the assay on NCI-H23 lung it was more than 100 µM; in the assay with NCI/ADR-RES ovarian it was more than 100 µM; in the assay on OVCAR-4 ovarian, more than 100 µM; in the assay with PC-3 prostate, more than 100 µM. The TGI in the assay on SF-268 CNS is more than 100 µM; in the assay with SK-MEL-28 melanoma, more than 100 µM; with SK-OV-3 ovarian, 0.932 µM; in the assay with SW-620 colon, more than 100 µM.
